Data: paper PMC12788799, “Affinity-guided labeling reveals P2X7 nanoscale membrane redistribution during BV2 microglial activation” (eLife, 2026)
Where a chain is given by its changes, count along the chain named.

Legend:
Format in all cases: cell-based
[1] = biological target: T1, mouse P2X7 (Mus musculus, UniProt Q9Z1M0); assay: Competition:[…] blocks X7-uP labeling of endogenous P2X7 (pull-down western blot, confocal)
T1 construct: gene P2rx7; endogenous P2X7 in BV2 cells
T1 sequence (Q9Z1M0 1-595): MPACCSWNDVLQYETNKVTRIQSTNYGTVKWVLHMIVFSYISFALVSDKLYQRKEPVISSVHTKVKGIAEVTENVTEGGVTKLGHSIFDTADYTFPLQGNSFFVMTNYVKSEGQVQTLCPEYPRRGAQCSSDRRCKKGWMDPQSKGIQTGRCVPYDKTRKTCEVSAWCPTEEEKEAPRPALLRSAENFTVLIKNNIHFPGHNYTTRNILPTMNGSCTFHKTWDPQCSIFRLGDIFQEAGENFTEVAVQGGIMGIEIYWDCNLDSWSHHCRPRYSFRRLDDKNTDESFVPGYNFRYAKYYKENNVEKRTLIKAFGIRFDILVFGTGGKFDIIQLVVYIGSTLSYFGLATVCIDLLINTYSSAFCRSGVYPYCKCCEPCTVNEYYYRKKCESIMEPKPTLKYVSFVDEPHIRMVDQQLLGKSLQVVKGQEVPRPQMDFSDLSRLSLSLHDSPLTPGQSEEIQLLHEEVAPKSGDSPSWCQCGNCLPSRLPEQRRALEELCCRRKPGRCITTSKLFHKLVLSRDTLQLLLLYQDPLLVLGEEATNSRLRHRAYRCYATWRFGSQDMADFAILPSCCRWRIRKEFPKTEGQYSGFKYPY

[2] = biological target: T2, rat P2X7 (rP2X7) (Rattus norvegicus, UniProt Q64663); assay: Whole-cell patch-clamp, inhibition of BzATP-evoked currents at […] in HEK293T cells; also blocks X7-uP labeling; design: gene P2rx7
T2 sequence (Q64663 1-595): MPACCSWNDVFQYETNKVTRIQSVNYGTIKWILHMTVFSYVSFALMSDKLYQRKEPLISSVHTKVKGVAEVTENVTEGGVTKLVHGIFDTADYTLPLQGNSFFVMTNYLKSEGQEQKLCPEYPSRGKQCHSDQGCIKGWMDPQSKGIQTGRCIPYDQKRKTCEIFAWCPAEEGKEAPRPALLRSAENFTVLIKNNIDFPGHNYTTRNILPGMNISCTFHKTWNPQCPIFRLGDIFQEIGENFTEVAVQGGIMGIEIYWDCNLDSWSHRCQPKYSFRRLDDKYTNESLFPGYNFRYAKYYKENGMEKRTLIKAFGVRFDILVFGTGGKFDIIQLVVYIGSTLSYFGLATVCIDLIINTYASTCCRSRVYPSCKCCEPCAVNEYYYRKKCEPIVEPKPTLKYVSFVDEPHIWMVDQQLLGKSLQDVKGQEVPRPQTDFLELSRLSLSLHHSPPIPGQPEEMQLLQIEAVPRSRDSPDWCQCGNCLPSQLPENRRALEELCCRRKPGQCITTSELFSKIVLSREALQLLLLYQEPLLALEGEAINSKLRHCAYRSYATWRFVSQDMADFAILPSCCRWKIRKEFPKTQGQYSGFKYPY

[3] = biological target: T1, mouse P2X7; assay: Covalent biotinylation of endogenous receptor with […] X7-uP, pull-down western blot and confocal imaging, blocked by AZ10606120 or A740003
[4] = biological target: T3, rat P2X7 (rP2X7) (Rattus norvegicus, UniProt Q64663, K82A/K117A); assay: Whole-cell patch-clamp, reversible inhibition of BzATP-evoked currents by […] X7-uP in HEK293T cells
T3 construct: gene P2rx7; P2X7-mScarlet background
T3 sequence (Q64663 1-595 K82A/K117A): T2 sequence (Q64663 1-595) with K82A, K117A

[5] = biological target: T2, rat P2X7 (rP2X7); assay: Kinetics of covalent biotinylation in HEK293T cells (pull-down western blot); whole-cell patch-clamp inhibition of BzATP currents; design: gene P2rx7; P2X7c-myc

O=C(CC12CC3CC(CC(C3)C1)C2)Nc1cccc2nc(NCCNCCO)ccc12 [AZ10606120]
Competition: 10 μM blocks X7-uP labeling of endogenous P2X7 (pull-down western b) [1]: This band disappeared upon co-incubation with AZ10606120 or A740003
inhibition at 1 µM [2]: 99.7%

N#CCN(C(=O)CCOCCOCCOCCOCCNC(=O)CCCC[C@@H]1SC[C@@H]2NC(=O)N[C@@H]21)S(=O)(=O)c1ccc(C(=O)NCCNc2ccc3c(NC(=O)CC45CC6CC(CC(C6)C4)C5)cccc3n2)cc1 [X7-uP, N-(2-((5-(2-(adamantan-1-yl)acetamido)quinolin-2-yl)amino)ethyl)–4-(N-(cyanomethyl)-N-(17-oxo-21-((3aR,4R,6aS)–2-oxo-hexahydro-1H-thieno[3,4-d]imidazol-4-yl)–4,7,10,13-tetraoxa-16-azahenico-sanoyl)sulfamoyl)benzamide]
% labeled [3]: 80 % labeled
Whole-cell patch-clamp, reversible inhibition of BzATP-evoked currents by 0.5 μM [4]: the double K82A/K117A mutant did not affect the ability of X7-uP to inhibit BzATP-evoked currents
Kd [5]: 7.3 µM
